Laboratory results reported in US20220378802A1, “TREATMENT OF ALCOHOLIC HEPATITIS” (Durect Corporation, priority 2019, published 2022).
Entries after “also recorded” stand apart in the source; their conditions may differ.

Assays:
[1] = Pharmacokinetics of 25HC3S in healthy subjects (earlier study); assay type: in vivo, human; settings: Healthy subjects (N = 5), single dose of 150 mg
Text: The clearance of 25HC3S sodium was decreased by 80% in AH patients as compared to that in healthy subjects from an earlier study. A comparison of the pharmacokinetic parameters of 25HC3S administered to healthy subjects versus subjects with alcoholic hepatitis is summarized in the following Table. A comparison of the plasma concentration of 25HC3S administered to healthy subjects versus subjects with alcoholic hepatitis is depicted in FIG. 5.

[2] = system: patients with alcoholic hepatitis; assay: Pharmacodynamic signals (Lille score, MELD, bilirubin, survival) in Phase 2a trial; assay type: in vivo, human
Protocol: As described in more detail below, a total of 19 patients were enrolled into an open-label Phase 2a multi-center trial, of whom 15 had Maddrey's Discriminant Function (MDF) ≥32 (Severe Alcoholic Hepatitis (SAH)), 12 had MELD scores at 21-30, and 11 had baseline serum bilirubin levels >8 mg/dL. All patients received IV infused 25HC3S (at 30, 90, or 150 mg) on Day 1 and Day 4 (if still hospitalized), and were followed for 28-days. The final enrollment was 19 patients comprised of: 8 patients (4 moderate and 4 severe) dosed at 30 mg, 7 patients (3 moderate and 4 severe) dosed at 90 mg, and 4 patients (4 severe) dosed at 150 mg.
• Study Drug A 25HC3S sodium salt solution contained: • 30 mg/mL 25HC3S sodium salt; • 240 mg/mL hydroxypropyl-beta-cyclodextrin; and • 50 mmole phosphate buffer • The 25HC3S sodium salt solution was diluted in 100 mL 5% dextrose or 0.9% sodium chloride infusion solution: • Dose 1: 30 mg of 25HC3S sodium salt in 100 mL 5% dextrose or 0.9% sodium chloride • Dose 2: 90 mg of 25HC3S sodium salt in 100 mL 5% dextrose or 0.9% sodium chloride • Dose 3: 150 mg of 25HC3S sodium salt in 100 mL 5% dextrose or 0.9% sodium chloride • 25HC3S sodium salt was administered by slow intravenous infusion over 2 hrs (50 mL/h) until the entire dose is given at Day 1 and Day 4. If a patient met the hospital discharge criteria prior to the second dose, the patient received only one dose instead of two doses. • Study Procedure The study was conducted in two parts. Part A included patients with MELD scores of 11-20 (moderate AH patients), and Part B included patients with MELD of scores 21-30. The doses of 25HC3S sodium salt administered were 30 mg and 90 mg for Part A and 30 mg, 90 mg and 150 mg for Part B, with 4 patients per dose group per Part (except for only 3 patients in the 90 mg cohort of Part A). All patients were followed to Day 28. • The study started in 4 moderate AH patients (Part A) at 30 mg dose level. After completing the dosing, a Dose Escalation Committee (DEC) reviewed safety, tolerability and pharmacokinetic (PK) data from all 4 patients and determined that it was safe to move forward to dose 4 severe AH patients (Part B) at the same dose level, 30 mg, as well as escalating the dose level to 90 mg in moderate patients (Part A). The same dose escalation procedure was then conducted in Part B until all 4 patients received 150 mg doses. • A flow diagram of the study is depicted in FIG. 2. Each dose cohort enrolled up to 4 subjects. Study subjects received up to 2 doses of 25HC3S sodium salt. The first dose was administered on Day 1 and, if still hospitalized, the second dose was administered on Day 4. A pharmacokinetic (PK) sample was collected at: Time 0 (pre-dose), 1 hour post-dose initiation, 2 hours (end of infusion), 3 hours post-dose initiation, 4 hours post-dose initiation, 8 hours post-dose initiation, 12 hours post-dose initiation, 24-hours post-dose initiation and 50 hours post-dose initiation.
• 1. Patients with alcoholic hepatitis defined in this clinical trial as: • a. History of heavy alcohol abuse: >40 g/day in females or >60 g/day in males for a minimum period of 6 months, AND • b. Consumed alcohol within 12 weeks of entry into the study, AND • c. Serum bilirubin >3 mg/dL AND AST>ALT, but less than 300 U/L, AND • d. MELD score between 11-30, inclusive A listing of the baseline laboratory characteristics of the subjects of each cohort is shown in the Table below. […]

[3] = All patients with 30 or 90 mg (14), Day 7
[4] = Baseline bilirubin >8 mg/dL (11), Day 7
[5] = Baseline bilirubin >8 mg/dL with 30 or 90 mg (8), Day 7
[6] = MELD 21-30 with 30 or 90 mg (8), Day 7
[7] = SAH with 30 or 90 mg (11), Day 7

SMILES: C[C@H](CCCC(C)(C)O)[C@H]1CC[C@H]2[C@@H]3CC=C4C[C@@H](OS(=O)(=O)O)CC[C@]4(C)[C@H]3CC[C@]12C [25HC3S, 5-cholesten-3,25-diol, 3-sulfate]
- V [1]: 55.0 (4.3) L
- AUC(0-inf) ([1]; human, plasma): 6190 ng·h/mL
- Cmax ([1]; human, plasma): 3100 ng/mL
- clearance ([1]; human, plasma): 408 mL/min
- half-life ([1]; human, plasma, read-out: T½ (converted)): 1.6 h
- patients with a Lille score below 0.45 (number of patients) ([2]; 18 AH patients who returned for Day 7 visit): 16/18
- reductions from baseline in bilirubin (day 7 and 28) and MELD (day 28) compared with University of Louisville historical control ([2]; 19 patients): statistically significantly greater reductions
- survival rate ([2]; 28-day follow-up period, all patients): 100%
- Responders (Lille score <0.45) ([2]; All Patients (18), Day 7): 89%
- Lille Median (1st, 3rd quartile) [2, 3]: 0.05 (0.04, 0.19)
- Responders (Lille score <0.45) [2, 3]: 100%
- Lille Median (1st, 3rd quartile) [2, 4]: 0.10 (0.05, 0.20)
- Responders (Lille score <0.45) [2, 4]: 82%
- Lille Median (1st, 3rd quartile) [2, 5]: 0.10 (0.05, 0.19)
- Responders (Lille score <0.45) [2, 5]: 100%
- serum bilirubin levels ([2]; Day 7, one or two doses): significantly reduced
- MELD scores ([2]; Day 28, one or two doses): significantly reduced
- Lille Median (1st, 3rd quartile) ([2]; MELD 21-30 (12), Day 7): 0.19 (0.11, 0.25)
- Responders (Lille score <0.45) ([2]; MELD 21-30 (12), Day 7): 83%
- Lille Median (1st, 3rd quartile) [2, 6]: 0.19 (0.10, 0.19)
- Responders (Lille score <0.45) [2, 6]: 100%
- Lille Median (1st, 3rd quartile) ([2]; SAH (15), Day 7): 0.19 (0.05, 0.22)
- median reduction of MELD from baseline ([2]; SAH patients treated with 30 or 90 mg, Day 28, p=0.01): −19.0%
- MELD score change from baseline ([2]; SAH patients, Day 28, 1 or 2 doses, p=0.01): −17.5%
- Lille Median (1st, 3rd quartile) [2, 7]: 0.12 (0.05, 0.19)
- Responders (Lille score <0.45) [2, 7]: 100%
- Responders (Lille score <0.45) ([2]; SAH, MDF≥32 (15), Day 7): 87%
- reduction from baseline of serum total bilirubin levels ([2]; all AH patients (n=18), Day 7): −14%
- survival through 28-day follow-up period ([2]; all patients, including SAH): survived
- Lille score at Day 7 ([2]; all subjects administered 30 mg and 90 mg (FIG. 6)): less than 0.45
- Lille scores compared with published historical data (Louvet et al., 145 AH patients) ([2]; p<0.0001): significantly lower; also recorded: significantly better
- Lille scores compared with University of Louisville historical control (standard of care) ([2]; p=0.005): statistically significantly lower
- serum bilirubin change ([2]; patients with baseline bilirubin >8.0 mg/dL, Day 7, p=0.02): −25.1%
- Lille score at Day 7 ([2]; two of the subjects having severe AH administered 150 mg (FIG. 6)): greater than 0.45
